# Target: ATP-dependent translocase ABCB1 (Homo sapiens, UniProt P08183)
# Assay: TP_TRANSPORTER: inhibition of Daunorubicin efflux in NIH-3T3-G185 cells
# Sequence of ATP-dependent translocase ABCB1 (P08183 whole entry): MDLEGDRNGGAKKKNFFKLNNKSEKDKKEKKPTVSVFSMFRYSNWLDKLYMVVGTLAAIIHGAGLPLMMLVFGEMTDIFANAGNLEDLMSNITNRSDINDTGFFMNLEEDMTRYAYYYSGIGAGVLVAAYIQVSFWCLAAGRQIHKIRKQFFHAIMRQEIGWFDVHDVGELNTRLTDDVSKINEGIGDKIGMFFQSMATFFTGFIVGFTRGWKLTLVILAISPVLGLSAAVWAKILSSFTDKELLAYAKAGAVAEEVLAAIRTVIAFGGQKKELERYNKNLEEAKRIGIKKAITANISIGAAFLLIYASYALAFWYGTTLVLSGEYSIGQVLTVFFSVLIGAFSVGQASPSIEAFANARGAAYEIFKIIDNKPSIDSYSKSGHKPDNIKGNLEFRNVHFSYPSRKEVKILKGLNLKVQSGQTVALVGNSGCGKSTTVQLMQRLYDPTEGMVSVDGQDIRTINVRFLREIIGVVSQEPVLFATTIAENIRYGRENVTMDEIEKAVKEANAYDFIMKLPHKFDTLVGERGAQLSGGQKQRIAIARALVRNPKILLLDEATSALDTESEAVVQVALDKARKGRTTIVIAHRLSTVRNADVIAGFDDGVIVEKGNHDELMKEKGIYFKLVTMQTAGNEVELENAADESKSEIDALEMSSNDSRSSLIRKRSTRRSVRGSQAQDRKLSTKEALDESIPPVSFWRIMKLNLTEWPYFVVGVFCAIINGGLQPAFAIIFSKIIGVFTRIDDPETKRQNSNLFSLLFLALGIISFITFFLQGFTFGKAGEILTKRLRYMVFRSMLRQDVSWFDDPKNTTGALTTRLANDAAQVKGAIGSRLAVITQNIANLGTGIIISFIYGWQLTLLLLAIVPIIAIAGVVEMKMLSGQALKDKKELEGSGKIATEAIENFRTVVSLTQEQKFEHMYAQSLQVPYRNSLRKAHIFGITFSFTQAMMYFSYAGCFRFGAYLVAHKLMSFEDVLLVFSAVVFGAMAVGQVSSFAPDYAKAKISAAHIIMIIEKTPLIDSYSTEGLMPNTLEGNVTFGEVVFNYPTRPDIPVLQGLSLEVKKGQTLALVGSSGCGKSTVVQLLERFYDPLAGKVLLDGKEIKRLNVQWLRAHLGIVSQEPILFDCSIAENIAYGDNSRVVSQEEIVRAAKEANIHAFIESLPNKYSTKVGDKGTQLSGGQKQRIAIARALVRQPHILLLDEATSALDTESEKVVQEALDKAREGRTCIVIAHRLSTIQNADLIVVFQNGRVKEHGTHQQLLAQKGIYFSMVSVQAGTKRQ
row,Structure (SMILES),IC50
1,CC(=O)S[C@@H]1CC2=CC(=O)CC[C@]2(C)[C@H]2CC[C@@]3(C)[C@@H](CC[C@@]34CCC(=O)O4)[C@H]12 [SPIRONOLACTONE],23.6 µM
2,CC(C)[C@@H]1NC(=O)[C@H](C)OC(=O)[C@@H](C(C)C)NC(=O)[C@@H](C(C)C)OC(=O)[C@H](C(C)C)NC(=O)[C@H](C)OC(=O)[C@@H](C(C)C)NC(=O)[C@@H](C(C)C)OC(=O)[C@H](C(C)C)NC(=O)[C@H](C)OC(=O)[C@@H](C(C)C)NC(=O)[C@@H](C(C)C)OC1=O [VALINOMYCIN],3.2 µM
3,COc1ccc(CCN(C)CCCC(C#N)(c2cc(OC)c(OC)c(OC)c2)C(C)C)cc1OC (stereo unspecified) [GALLOPAMIL],3.2 µM
4,COc1ccc(CCNCCCC(C#N)(c2ccc(OC)c(OC)c2)C(C)C)cc1OC (stereo unspecified) [NORVERAPAMIL],0.9 µM
5,COC(=O)C1=C(C)NC(C)=C(C(=O)OC)C1c1ccccc1[N+](=O)[O-] [NIFEDIPINE],113 µM
6,COc1ccc(-c2cc(=O)c3c(OC)c(OC)c(OC)c(OC)c3o2)cc1OC [NOBILETIN],11.5 µM

# From ChEMBL document CHEMBL2073899, “Quantitative distinctions of active site molecular recognition by P-glycoprotein and cytochrome P450 3A4” (Chem Res Toxicol, 2001)
